Results on two compounds are retold here after patent publication US8334403B1, “C-lysine conjugates as pH-controlled, light-activated reagents for double stranded DNA cleavage and associated methods” (Florida State University Research Foundation, Inc., priority 2005, dated 2012).

Marks after values point to notes of the source that are not given here.

For series [1] the following is noted: published literature; cited from earlier work.
Series [2] is described as follows: pH (pD) titration by 1H-NMR in D2O. The class given is physicochemical. Particulars: uncorrected. As to the method:
General information. ^1H, ^13C and ^19F NMR were collected on a Varian Gemini 300 MHz NMR spectrometer and a Bruker 300 MHz NMR spectrometer. Mass spectrometry data was collected on a Jeol JMS-600H. UV spectra were recorded on a Shimadzu UV-2100. Fluorescence spectra were obtained with SPEX FluoMax spectrofluorimeter using right-angle geometry. pH was adjusted with AB 15 plus pH meter (Accument) after standardization at 25° C. All buffers were prepared and pH-adjusted at room temperature (25° C.). Plasmid DNA Photocleavage. pBR322 plasmid DNA (4,361 b/p; from BioLabs Inc., 1 μg/μL solution in 10 mM Tris-HCl (pH 8.0), and 1 mM EDTA buffer) was diluted to a concentration of 0.01 μg/μL. The solution containing cleavage agent, DNA (30 μM/bp) in 20 mM sodium phosphate buffer was incubated for 1 hour at 30° C. […] The relative quantities of the supercoiled, nicked, and linear DNA were calculated by integrating the “area” of each spot by the image analyzer software Total/Lab (Nonlinear Dynamics Ltd., UK). […] Absorbance and fluorescence titration with DNA. The concentrations of calf thymus DNA stock solution was determined spectophotometrically using the following molar absorptovity values: 1.32×10^4 M^−1 cm^−1 (per base pair) at 260 nm. […]

As to `NCCCC[C@H](N)C(=O)O` [Lysine], in series [1], the pKa1 is on record as 8.95^b and the pKa2 is on record as 10.53^b.
`Cl.Cl.NCCCC[C@H](N)C(=O)Nc1ccccc1` [Compound 8, (S)-2,6-Diaminohexanoic acid phenyl-amide dihydrochloride]: in series [2], the “pKa1 (α-amino group)” value was determined as 7.56 and the “pKa2 (ε-amino group)” value is listed as 10.75.
